Assay results as given in ChEMBL document CHEMBL5506059, “Cyanomethylquinolones as a New Class of Potential Multitargeting Broad-Spectrum Antibacterial Agents” (J Med Chem, 2024).
In brackets after ≈: the same amount, converted by molar mass. Activity calls are given as the source filed them. The rule behind the calls is not given here.

How the values were obtained:
Staphylococcus aureus [1] = test: Antibacterial activity against methicillin resistant Staphylococcus aureus clinical isolate assessed as inhibition of bacterial growth incubated for 24 hrs; format: functional
Staphylococcus aureus [2] = test: Antibacterial activity against Staphylococcus aureus ATCC 25923 assessed as inhibition of bacterial growth incubated for 24 hrs; format: functional
Staphylococcus aureus [3] = test: Antibacterial activity against Staphylococcus aureus ATCC 29213 assessed as inhibition of bacterial growth incubated for 24 hrs; format: functional
Klebsiella pneumoniae = test: Antibacterial activity against Klebsiella pneumoniae clinical isolate assessed as inhibition of bacterial growth incubated for 24 hrs; format: functional
Escherichia coli = test: Antibacterial activity against Escherichia coli clinical isolate assessed as inhibition of bacterial growth incubated for 24 hrs; format: functional
Pseudomonas aeruginosa [4] = test: Antibacterial activity against Pseudomonas aeruginosa ATCC 27853 assessed as inhibition of bacterial growth incubated for 24 hrs; format: functional
Acinetobacter baumannii = test: Antibacterial activity against Acinetobacter baumannii clinical isolate assessed as inhibition of bacterial growth incubated for 24 hrs; format: functional
Pseudomonas aeruginosa [5] = test: Potency index, ratio of ciprofloxacin MIC to test compound MIC for antibacterial activity against Pseudomonas aeruginosa clinical isolate assessed as inhibition of bacterial growth incubated for 24 hrs; format: functional
Pseudomonas aeruginosa [6] = test: Potency index, ratio of clinafloxacin MIC to test compound MIC for antibacterial activity against Pseudomonas aeruginosa clinical isolate assessed as inhibition of bacterial growth incubated for 24 hrs; format: functional
Streptococcus pneumoniae = test: Antibacterial activity against Streptococcus pneumoniae ATCC 6305 assessed as inhibition of bacterial growth incubated for 24 hrs; format: functional
Streptococcus pyogenes [7] = test: Antibacterial activity against Streptococcus pyogenes ATCC 19615 assessed as inhibition of bacterial growth incubated for 24 hrs; format: functional
[8] = system: Staphylococcus epidermidis; test: Antibacterial activity against Staphylococcus epidermidis ATCC 12228 assessed as inhibition of bacterial growth incubated for 24 hrs; format: functional
Staphylococcus aureus [9] = test: Antibacterial activity against methicillin-resistant Staphylococcus aureus ATCC 43300 assessed as inhibition of bacterial growth incubated for 24 hrs; format: functional
Staphylococcus aureus [10] = test: Antibacterial activity against Staphylococcus aureus ATCC 6538 assessed as inhibition of bacterial growth incubated for 24 hrs; format: functional
Staphylococcus aureus [11] = test: Antibacterial activity against Staphylococcus aureus CMCC(B)26003 assessed as inhibition of bacterial growth incubated for 24 hrs; format: functional
Staphylococcus aureus [12] = test: Antibacterial activity against Staphylococcus aureus CMCC(B)26001 assessed as inhibition of bacterial growth incubated for 24 hrs; format: functional
Enterococcus faecium = test: Antibacterial activity against Enterococcus faecium ATCC 19434 assessed as inhibition of bacterial growth incubated for 24 hrs; format: functional
Enterococcus faecalis [13] = test: Antibacterial activity against vancomycin-resistant Enterococcus faecalis clinical isolate p1-2007226001 assessed as inhibition of bacterial growth incubated for 24 hrs; format: functional
Streptococcus pyogenes [14] = test: Potency index, ratio of norfloxacin MIC to test compound MIC for antibacterial activity against Streptococcus pyogenes ATCC 19615 assessed as inhibition of bacterial growth incubated for 24 hrs; format: functional
Enterococcus faecalis [15] = test: Potency index, ratio of norfloxacin MIC to test compound MIC for antibacterial activity against vancomycin-resistant Enterococcus faecalis clinical isolate p1-2007225053 assessed as inhibition of bacterial growth incubated for 24 hrs; format: functional
Enterococcus faecalis [16] = test: Potency index, ratio of ciprofloxacin MIC to test compound MIC for antibacterial activity against vancomycin-resistant Enterococcus faecalis clinical isolate p1-2007225053 assessed as inhibition of bacterial growth incubated for 24 hrs; format: functional
L02 = test: Cytotoxicity against human L02 cells assessed as reduction in cell viability at 0.78 to 25 ug/ml measured after 24 hrs by MTT assay; format: toxicity, cell-based; conditions: l02, 24 h, dose 0.78-25 µg/ml
[17] = Cytotoxicity against HUVEC cells assessed as cell viability at 25 ug/ml measured after 24 hrs by MTT assay relative to control; format: toxicity, cell-based; conditions: human, at 25 µg/mL, read-out: Activity
Staphylococcus aureus [18] = test: Resistance development in methicillin resistant Staphylococcus aureus assessed as increase in MIC measured after 20 days; format: functional, organism-based; conditions: time 20.0 day
Pseudomonas aeruginosa [19] = test: Antibiofilm activity in Pseudomonas aeruginosa assessed as biofilm eradication measured after 24 hrs by crystal violet staining based analysis; format: functional, organism-based; conditions: dose 1-2 µg/ml
Pseudomonas aeruginosa [20] = test: Induction of intracellular ROS generation in Pseudomonas aeruginosa assessed as increase in fluorescence intensity at 2 ug/ml incubated for 6 hrs by DCFH-DA dye based fluorescence analysis; format: functional, organism-based; conditions: dose 2.0 µg/ml
Pseudomonas aeruginosa [21] = test: Induction of intracellular ROS generation in Pseudomonas aeruginosa assessed as increase in fluorescence intensity at 2 ug/ml incubated for 6 hrs in presence of N-acetyl-L-cysteine by DCFH-DA dye based fluorescence analysis; format: functional, organism-based; conditions: dose 2.0 µg/ml
Staphylococcus aureus [22] = test: Induction of morphological changes in methicillin resistant Staphylococcus aureus assessed as appearance of wrinkled bacterial surface at 2 ug/ml incubated for 3 hrs by SEM analysis; format: functional, organism-based; conditions: dose 2.0 µg/ml
Pseudomonas aeruginosa [23] = test: Induction of morphological changes in Pseudomonas aeruginosa assessed as appearance of wrinkled bacterial surface at 2 ug/ml incubated for 3 hrs by SEM analysis; format: functional, organism-based; conditions: dose 2.0 µg/ml
Staphylococcus aureus [24] = test: Induction of morphological changes in methicillin resistant Staphylococcus aureus assessed as appearance of blurred intracellular boundaries with disintegration of bacterial structure at 2 ug/ml incubated for 3 hrs by SEM analysis; format: functional, organism-based; conditions: dose 2.0 µg/ml
Pseudomonas aeruginosa [25] = test: Induction of morphological changes in Pseudomonas aeruginosa assessed as appearance of blurred intracellular boundaries with disintegration of bacterial structure at 2 ug/ml incubated for 3 hrs by SEM analysis; format: functional, organism-based; conditions: dose 2.0 µg/ml
Cell membrane [26] = test: Induction of cell membrane depolarization in methicillin-resistant Staphylococcus aureus assessed as increase in fluorescence intensity at 1 ug/ml measured for 30 mins by DiSC35 dye based fluorescence analysis; format: cell membranes; conditions: dose 1.0 µg/ml
Cell membrane [27] = test: Induction of cell membrane depolarization in Pseudomonas aeruginosa assessed as increase in fluorescence intensity at 1 ug/ml measured for 30 mins by DiSC35 dye based fluorescence analysis; format: cell membranes; conditions: dose 1.0 µg/ml
Cell membrane [28] = test: Induction of cell membrane permeability in methicillin-resistant Staphylococcus aureus assessed as increase in fluorescence intensity at 1 to 2 ug/ml incubated for 6 hrs by PI staining based fluorescence analysis; format: cell membranes; conditions: dose 1-2 µg/ml
Cell membrane [29] = test: Induction of cell membrane permeability in Pseudomonas aeruginosa assessed as increase in fluorescence intensity at 1 to 2 ug/ml incubated for 6 hrs by PI staining based fluorescence analysis; format: cell membranes; conditions: dose 1-2 µg/ml
Cell membrane [30] = test: Induction of cell membrane damage in methicillin-resistant Staphylococcus aureus assessed as increase in nucleic acid leakage at 0 to 2 ug/ml incubated for 12 hrs by optical density based microplate reader analysis; format: cell membranes; conditions: dose 0-2 µg/ml
Cell membrane [31] = test: Induction of cell membrane damage in Pseudomonas aeruginosa assessed as increase in nucleic acid leakage at 0 to 2 ug/ml incubated for 12 hrs by optical density based microplate reader analysis; format: cell membranes; conditions: dose 0-2 µg/ml
Pseudomonas aeruginosa [32] = test: Antibacterial activity against Pseudomonas aeruginosa assessed as reduction in metabolic activity by measuring reduction in fluorescence intensity at 0.5 to 2 times MIC incubated for 6 hrs by alamar blue assay; format: functional, organism-based
Staphylococcus aureus [33] = test: (§1) Antibacterial activity against methicillin resistant Staphylococcus aureus infected in female ICR mouse assessed as log reduction in bacterial load at 10 mg/kg pre-infected with bacteria for 24 hrs followed by compound administration on wound site every 6 hrs for 2 times and measured 36 hrs post infection; format: functional; conditions: time 12 hrs
Staphylococcus aureus [34] = test: as §1, with “20” for “10”; format: functional; conditions: time 12 hrs

## N#CCc1cc2c(cc1F)c(=O)c(C(=O)O)cn2C1CC1
Staphylococcus aureus [1]
  MIC: 0.5 µg/mL (≈ 1.75 µM)
Staphylococcus aureus [2]
  MIC: 4 µg/mL (≈ 14 µM)
Staphylococcus aureus [3]
  MIC: 1 µg/mL (≈ 3.49 µM)
Klebsiella pneumoniae
  MIC: 1 µg/mL (≈ 3.49 µM)
Escherichia coli
  MIC: 2 µg/mL (≈ 6.99 µM)
Pseudomonas aeruginosa [4]
  MIC: 0.5 µg/mL (≈ 1.75 µM)
Acinetobacter baumannii
  MIC: 0.25 µg/mL (≈ 0.873 µM)
Pseudomonas aeruginosa [5]
  Ratio: 8
Pseudomonas aeruginosa [6]
  Ratio: 2
Streptococcus pneumoniae
  MIC: 0.5 µg/mL (≈ 1.75 µM)
Streptococcus pyogenes [7]
  MIC: 0.25 µg/mL (≈ 0.873 µM)
[8]
  MIC: 0.5 µg/mL (≈ 1.75 µM)
Staphylococcus aureus [9]
  MIC: 0.5 µg/mL (≈ 1.75 µM)
Staphylococcus aureus [10]
  MIC: 0.5 µg/mL (≈ 1.75 µM)
Staphylococcus aureus [11]
  MIC: 0.125 µg/mL (≈ 0.437 µM)
Staphylococcus aureus [12]
  MIC: 0.125 µg/mL (≈ 0.437 µM)
Enterococcus faecium
  MIC: 2 µg/mL (≈ 6.99 µM)
Enterococcus faecalis [13]
  MIC: 4 µg/mL (≈ 14 µM)
Streptococcus pyogenes [14]
  Ratio: 128
Enterococcus faecalis [15]
  Ratio: 8
Enterococcus faecalis [16]
  Ratio: 2
L02
  Activity: Non-Toxic
[17]
  viability at 24 h, 25 ug/ml: > 90%
Staphylococcus aureus [18]
  Activity: inactive
Pseudomonas aeruginosa [19]
  Activity: Dose-Dependent Effect
Pseudomonas aeruginosa [20]
  Activity: Active
Pseudomonas aeruginosa [21]
  Activity: inactive
Staphylococcus aureus [22]
  Activity: Active
Pseudomonas aeruginosa [23]
  Activity: Active
Staphylococcus aureus [24]
  Activity: Active
Pseudomonas aeruginosa [25]
  Activity: Active
Cell membrane [26]
  Activity: Active
Cell membrane [27]
  Activity: Active
Cell membrane [28]
  Activity: Active
Cell membrane [29]
  Activity: Active
Cell membrane [30]
  Activity: Active
Cell membrane [31]
  Activity: Active
Pseudomonas aeruginosa [32]
  Activity: Active
Staphylococcus aureus [33]
  log(activity): ~2.5
Staphylococcus aureus [34]
  log(activity): ~4
